Patent publication US20180340174A1, “METHOD FOR IDENTIFICATION OF MOLECULES WITH DESIRED CHARACTERISTICS” (NANOCORE APS, priority 2014, published 2018)
Where two headings read alike, the source gives them in different places. One block for each molecule: values may come before it. Where no end group is shown, it is not given here.

What was measured:
[1] = Serizawa et al. 2007; cited from earlier work
[2] = Seker et al. 2011; Chen et al. 2006; cited from earlier work
[3] = Serizawa et al. 2007; bound to PMMA (syndiotactic); cited from earlier work
[4] = Serizawa et al. 2007; bound to PMMA (isotactic); cited from earlier work
[5] = target: T1, soluble epoxide hydrolase (sEH) (Homo sapiens, UniProt P34913); conditions: Litovchick 2015; cited from earlier work
T1 sequence (P34913 1-555): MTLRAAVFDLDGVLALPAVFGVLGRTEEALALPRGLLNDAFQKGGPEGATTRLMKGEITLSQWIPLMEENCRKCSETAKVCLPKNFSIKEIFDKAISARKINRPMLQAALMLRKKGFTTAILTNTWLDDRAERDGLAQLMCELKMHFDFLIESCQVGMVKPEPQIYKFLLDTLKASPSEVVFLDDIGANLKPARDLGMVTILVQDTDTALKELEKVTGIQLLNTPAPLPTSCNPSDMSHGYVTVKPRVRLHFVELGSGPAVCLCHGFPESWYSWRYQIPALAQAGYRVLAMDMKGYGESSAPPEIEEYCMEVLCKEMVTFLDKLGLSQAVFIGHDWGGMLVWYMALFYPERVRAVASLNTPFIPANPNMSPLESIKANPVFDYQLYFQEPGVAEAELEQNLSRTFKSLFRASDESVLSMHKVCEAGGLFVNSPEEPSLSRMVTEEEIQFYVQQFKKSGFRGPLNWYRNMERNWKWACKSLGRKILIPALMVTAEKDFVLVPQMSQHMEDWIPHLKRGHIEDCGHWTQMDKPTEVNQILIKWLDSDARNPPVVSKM

[6] = Matsuno et al. 2008; bound to PMMA (atactic); cited from earlier work
[7] = Matsuno et al. 2008; bound to PLLA (amorphous); cited from earlier work
[8] = Matsuno et al. 2008; bound to PDLA; cited from earlier work
[9] = Matsuno et al. 2008; bound to PLLA (melt crystallization); cited from earlier work
[10] = Matsuno et al. 2008; bound to PLLA (layer by layer); cited from earlier work
[11] = Weiger et al. 2010; read-out: KD to HA; cited from earlier work
[12] = Serizawa et al. 2007; bound to Polystyrene (syndiotactic); cited from earlier work
[13] = Serizawa et al. 2007; bound to Polystyrene (atactic); cited from earlier work
[14] = Serizawa et al. 2007; bound to Polystyrene (isotactic); cited from earlier work
[15] = Sano et al. 2005; Meyers et al. 2007; cited from earlier work
[16] = Serizawa et al. 2007; cited from earlier work; remark: listed apart in the source
[17] = Li et al. 2013; cited from earlier work
[18] = Enrichment of CNT-binding peptide A2 displayed on bacteriophages versus mini-M13, blue/white colony counting
[19] = Seker et al. 2011; cited from earlier work
[20] = Islam et al. 2012; bound to Ceramic hydroxyl-apatite; cited from earlier work
[21] = Islam et al. 2012; bound to Ceramic fluorapatite; cited from earlier work
[22] = Selection of polynucleotide-tagged molecules on carbon nanotubes without and with PPyCl repeat units in the medium (Example 15.0.0.0); type: binding
Procedure: In this example library molecules (M) are peptides linked by […] (L) to DNA tags encoding the peptide. […] Identification of carbon nanotube binding molecules is described in Brown et al. (Small. 2008 April; 4 (4):416-20). The CNT target is prepared from single-walled carbon nanotubes (purified HiPCO, Carbon Nanotechnologies Inc., US) used as purchased. Bundles and individual tubes are suspended in dichloroethane by sonication and deposited on pieces of double side polished Si wafers. The CNT mats are inspected by scanning electron microscopy. A uniform, dense coverage on both sides of the 1 cm2 substrates is achieved by repeatedly depositing drops from the suspension, rinsing with isopropanol, and blow drying with nitrogen. Test enrichments are conducted inn a phosphate buffer (PKT). The enrichment for adhesion to CNT mats using solution conditions is done similarly to other searches for CNT binders. The population recovered from a single cycle of enrichment for binding to CNTs in a Tris-HCl buffer (TNT) differed from that obtained in PKT.
Binding molecules, which bind efficiently to a filler (carbon nanotubes) but not to a polymer matrix (PPyCl) of a composite material, are identified essentially as described in example 1.1.1.1. […]

[23] = Wang et al. 2003; cited from earlier work
[24] = Eijima et al. 2010; bound to PPV (linear); cited from earlier work
[25] = Eijima et al. 2010; bound to PPV (hyper-branched); cited from earlier work

Molecule: THLPWQT
Kd [1]: 0.067 nM

Molecule: CHKKPSKSC
Kd [2]: 4.1 nM

Molecule: ELWRPTR
Kd [3]: 150 µM
Kd [4]: 3.6 µM

Molecule: CN(CCn1cccn1)C(=O)c1ccc(-c2cccc(C(=O)NC3CCCCC3)c2)nc1 [compound 12]
enrichment over two affinity-mediated selection steps compared to the average within the naïve library [5]: approximately 30,000 fold

Molecule: QLMHDYR
Kd [6]: 180 µM
Kd [7]: 150 µM
Kd [8]: 21 µM
Kd [9]: 16 µM
Kd [10]: 67 µM

Molecule: SVSVGMKPSPRPGGGK
Kd [11]: 14.1 µM

Molecule: HLESTPG
Kd [12]: 7.9 pM
Kd [13]: 0.1 nM
Kd [14]: 0.065 nM

Molecule: RHEPPLA
Kd [12]: 11 pM
Kd [13]: 0.056 nM
Kd [14]: 0.021 nM

Molecule: QTWPPPLWFSTS
Kd [2]: 810 nM

Molecule: SCSDCLKSVDFIPSSLASS
Kd [15]: 0.25 µM

Molecule: GETQCAA
Kd [12]: 7.4 pM
Kd [13]: 0.034 nM

Molecule: HKPDANR
Kd [16]: 0.025 nM

Molecule: RLNPPSQMDPPF
Kd [2]: 8300 nM

Enrichment fold ([18]; 1 wash, CNT 0.02 mg/ml, 1.1E+9 bacteriophages): 100 fold
Enrichment fold ([18]; 3 washes, CNT 0.02 mg/ml, 1.1E+9 bacteriophages): 85 fold
Enrichment fold ([18]; 10 washes, CNT 0.02 mg/ml, 1.1E+9 bacteriophages): 91 fold
Enrichment fold ([18]; one wash, CNT 0.02 mg/ml, 1.1E+11 bacteriophages): 2 fold
Enrichment fold ([18]; one wash, CNT 0.2 mg/ml, 1.1E+9 bacteriophages): 23 fold
Enrichment fold ([18]; one wash, CNT 0.2 mg/ml, 1.1E+11 bacteriophages): 7 fold
Enrichment fold ([18]; one wash, CNT 2 mg/ml, 1.1E+9 bacteriophages): 4 fold
Enrichment fold ([18]; one wash, CNT 2 mg/ml, 1.1E+11 bacteriophages): 10 fold
Enrichment fold ([18]; ten washes with 1 min. sonication at 35 kHz and 160 W during washing, CNT 0.2 mg/ml, 1.1E+11 bacteriophages): 15 fold
Enrichment fold ([18]; ten washes, CNT 0.02 mg/ml, 1.1E+11 bacteriophages): 8 fold
Enrichment fold ([18]; ten washes, CNT 0.2 mg/ml, 1.1E+9 bacteriophages): 17 fold
Enrichment fold ([18]; ten washes, CNT 0.2 mg/ml, 1.1E+11 bacteriophages): 19 fold
Enrichment fold ([18]; ten washes, CNT 2 mg/ml, 1.1E+9 bacteriophages): 2 fold
Enrichment fold ([18]; ten washes, CNT 2 mg/ml, 1.1E+11 bacteriophages): 3 fold
Enrichment fold ([18]; three washes with 1 min. sonication at 35 kHz and 160 W during washing, CNT 0.2 mg/ml, 1.1E+11 bacteriophages): 17 fold
Enrichment fold ([18]; three washes, CNT 0.02 mg/ml, 1.1E+11 bacteriophages): 16 fold
Enrichment fold ([18]; three washes, CNT 0.2 mg/ml, 1.1E+9 bacteriophages): 16 fold
Enrichment fold ([18]; three washes, CNT 0.2 mg/ml, 1.1E+11 bacteriophages): 16 fold
Enrichment fold ([18]; three washes, CNT 2 mg/ml, 1.1E+9 bacteriophages): 2 fold
Enrichment fold ([18]; three washes, CNT 2 mg/ml, 1.1E+11 bacteriophages): 4 fold
Molecule: IFRLSWGTYFS [A2]
Kd [17]: 20 µM

Molecule: CPTSTGQAC
Kd [19]: 280 nM

Molecule: KPRSVSG
Kd [20]: 7.2 µM
Kd [21]: 5.4 µM

Molecule: CTLHVSSYC
Kd [19]: 1100 nM

Molecule: FPGHSGP
Kd [1]: 0.1 nM

Molecule: polynucleotide-tagged THRTSTLDYFVI-pyrene: polynucleotide-tagged peptide-pyrene which can bind to both carbon nanotubes and PPyCl (also: polynucleotide tag, site not given here)
Outcome of selection on carbon nanotubes ([22]; first experiment, medium as in example 1.1.1.1): identified as carbon nanotube binding molecules
Outcome of selection on carbon nanotubes ([22]; second experiment, medium comprises repeat units of PPyCl): removed during the partitioning step

Molecule: HWKHPWGAWDTL
Kd [23]: 50 µM

Molecule: HTDWRLGTWHETS
Kd [24]: 19 µM
Kd [25]: 1.3 µM

Molecule: FSWEAFA
Kd [12]: 6.1 pM
Kd [13]: 0.085 nM
Kd [14]: 0.034 nM

Molecule: ELWSIDTSAHRK
Kd [24]: 13 µM
Kd [25]: 27 µM

Molecule: HTAQSTA
Kd [12]: 10 pM
Kd [13]: 0.014 nM

Molecule: FPGRPSP
Kd [12]: 8.5 pM
Kd [13]: 0.031 nM

Molecule: GETRAPL
Kd [12]: 6.7 pM
Kd [13]: 0.067 nM
Kd [14]: 0.036 nM

Molecule: YLTMPTP
Kd [12]: 5 pM
Kd [13]: 0.022 nM

Molecule: RKLPDAPGMHTW
Kd [15]: 13 µM
